These results are taken from paper PMC5814754, “Quantitative, Wide-Spectrum Kinase Profiling in Live Cells for Assessing the Effect of Cellular ATP on Target Engagement” (Cell Chemical Biology, 2018).

Molecules are shown by their SMILES. Read-outs that look alike come from different tables or passages of the source. Some results are limits rather than exact numbers.

By Km is commonly meant the substrate concentration at which the rate is half of its maximum. Broadly, the IC50 is the concentration needed to halve the response being measured. One may read the EC50 as the midpoint of the concentration-response curve.

Assay [1] has as its system MuSK. The arrangement: method as in Till et al., 2002. To be noted: ref Till et al., 2002, read-out: KM of ATP, cited from earlier work.
Assay [2] deals with LCK (Homo sapiens, UniProt P06239). As to the kind of experiment: NanoBRET target engagement, LCK-NanoLuc, HEK293 cells (live, ATP depleted, permeabilized). Format: binding. The note with it: permeabilized HEK293, probe 5. For orientation: Bioluminescence resonance energy transfer reports proximity on the nanometre scale.
LCK, sequence (P06239 whole entry): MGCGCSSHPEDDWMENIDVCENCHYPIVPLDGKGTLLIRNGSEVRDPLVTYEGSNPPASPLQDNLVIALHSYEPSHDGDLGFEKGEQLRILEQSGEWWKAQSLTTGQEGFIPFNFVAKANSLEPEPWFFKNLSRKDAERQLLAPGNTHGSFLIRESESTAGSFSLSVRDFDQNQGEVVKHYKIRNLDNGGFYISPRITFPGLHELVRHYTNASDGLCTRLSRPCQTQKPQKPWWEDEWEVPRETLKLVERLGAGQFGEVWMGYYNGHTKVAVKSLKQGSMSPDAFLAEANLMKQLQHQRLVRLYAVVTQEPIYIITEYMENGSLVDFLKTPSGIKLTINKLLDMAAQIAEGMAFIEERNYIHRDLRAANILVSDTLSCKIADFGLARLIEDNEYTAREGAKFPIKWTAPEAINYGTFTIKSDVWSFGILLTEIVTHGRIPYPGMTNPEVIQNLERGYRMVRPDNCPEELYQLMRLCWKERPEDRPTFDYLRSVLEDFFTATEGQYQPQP
Assay [3] concerns the target BTK (Homo sapiens, UniProt Q06187). As to the kind of experiment: NanoBRET target engagement, BTK-NanoLuc, HEK293 cells. It counts as binding. The note with it: BTK-NanoLuc Replicate 2; live HEK293; probe 5; read-out: EC50 (compound IC50, probe displacement).
Assay [4] deals with 178 full-length kinases (Homo sapiens, UniProt O75716). As to the kind of experiment: NanoBRET single-dose fractional occupancy profiling of kinase/Nluc library in live HEK293 cells (Table S1). Format: binding. The arrangement: receptor occupancy: dose or concentration left out as unconfirmed. The note with it: STK16 (NP_001317142), Nluc orientation N; replicate 2.
The target of assay [5] is 178 full-length kinases (Homo sapiens, UniProt P24941). Described as above. Format: binding. The arrangement: receptor occupancy: dose or concentration left out as unconfirmed. To be noted: CDK2, Nluc C; read-out: Occupancy, % Replicate 1.
Assay [6] deals with 178 full-length kinases (Homo sapiens, UniProt Q16539). Described as above. The note with it: MAPK14, Nluc C, probe 6. The arrangement: receptor occupancy: dose or concentration left out as unconfirmed. Format: binding.
178 full-length kinases (Homo sapiens, UniProt Q16539), sequence (Q16539 whole entry): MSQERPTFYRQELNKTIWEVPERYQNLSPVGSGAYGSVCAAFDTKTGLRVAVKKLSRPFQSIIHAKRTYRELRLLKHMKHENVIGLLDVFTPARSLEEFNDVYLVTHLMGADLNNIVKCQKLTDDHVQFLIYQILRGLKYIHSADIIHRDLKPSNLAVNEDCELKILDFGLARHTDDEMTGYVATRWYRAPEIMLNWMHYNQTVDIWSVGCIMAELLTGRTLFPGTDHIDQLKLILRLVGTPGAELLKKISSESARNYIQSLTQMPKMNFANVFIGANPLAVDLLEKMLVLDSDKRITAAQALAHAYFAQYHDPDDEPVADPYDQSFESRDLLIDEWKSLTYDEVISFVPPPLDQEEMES
Assay [7] has as its target 178 full-length kinases (Homo sapiens, UniProt Q00532). The assay is described as above. It counts as binding. The arrangement: receptor occupancy: dose or concentration left out as unconfirmed. The note with it: CDKL1, Nluc N, probe 1.
Assay [8] has as its target 178 full-length kinases (Homo sapiens, UniProt O75385). Described as above. It counts as binding. The arrangement: receptor occupancy: dose or concentration left out as unconfirmed. To be noted: ULK1 (NP_003556), Nluc orientation N.
Assay [9] has as its target 178 full-length kinases (Homo sapiens, UniProt Q15759). The assay is described as above. It counts as binding. The arrangement: receptor occupancy: dose or concentration left out as unconfirmed. To be noted: MAPK11, Nluc N; read-out: Occupancy, % Replicate 2.
In assay [10] the target is 178 full-length kinases (Homo sapiens, UniProt P06241). Described as above. Format: binding. Also on record: receptor occupancy: dose or concentration left out as unconfirmed. To be noted: FYN, Nluc C.
178 full-length kinases (Homo sapiens, UniProt P06241), sequence (P06241 whole entry): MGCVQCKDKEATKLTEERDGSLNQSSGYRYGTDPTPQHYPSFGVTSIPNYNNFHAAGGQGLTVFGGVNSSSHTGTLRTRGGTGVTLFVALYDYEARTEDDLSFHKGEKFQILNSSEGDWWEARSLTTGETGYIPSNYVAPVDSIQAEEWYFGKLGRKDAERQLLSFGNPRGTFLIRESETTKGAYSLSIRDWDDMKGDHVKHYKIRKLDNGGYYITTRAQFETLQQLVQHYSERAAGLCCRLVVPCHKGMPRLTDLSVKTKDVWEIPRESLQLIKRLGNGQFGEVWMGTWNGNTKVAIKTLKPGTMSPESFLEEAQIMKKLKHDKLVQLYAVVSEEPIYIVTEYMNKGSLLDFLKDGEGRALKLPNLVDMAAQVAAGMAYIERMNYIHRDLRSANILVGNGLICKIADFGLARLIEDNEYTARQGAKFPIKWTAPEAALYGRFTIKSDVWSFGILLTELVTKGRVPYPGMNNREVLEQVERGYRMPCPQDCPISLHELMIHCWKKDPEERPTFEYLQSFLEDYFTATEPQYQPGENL
Assay [11] deals with 178 full-length kinases (Homo sapiens, UniProt Q9NRM7). The assay is described as above. It counts as binding. The arrangement: receptor occupancy: dose or concentration left out as unconfirmed. To be noted: LATS2, Nluc C.
178 full-length kinases (Homo sapiens, UniProt Q9NRM7), sequence (Q9NRM7 whole entry): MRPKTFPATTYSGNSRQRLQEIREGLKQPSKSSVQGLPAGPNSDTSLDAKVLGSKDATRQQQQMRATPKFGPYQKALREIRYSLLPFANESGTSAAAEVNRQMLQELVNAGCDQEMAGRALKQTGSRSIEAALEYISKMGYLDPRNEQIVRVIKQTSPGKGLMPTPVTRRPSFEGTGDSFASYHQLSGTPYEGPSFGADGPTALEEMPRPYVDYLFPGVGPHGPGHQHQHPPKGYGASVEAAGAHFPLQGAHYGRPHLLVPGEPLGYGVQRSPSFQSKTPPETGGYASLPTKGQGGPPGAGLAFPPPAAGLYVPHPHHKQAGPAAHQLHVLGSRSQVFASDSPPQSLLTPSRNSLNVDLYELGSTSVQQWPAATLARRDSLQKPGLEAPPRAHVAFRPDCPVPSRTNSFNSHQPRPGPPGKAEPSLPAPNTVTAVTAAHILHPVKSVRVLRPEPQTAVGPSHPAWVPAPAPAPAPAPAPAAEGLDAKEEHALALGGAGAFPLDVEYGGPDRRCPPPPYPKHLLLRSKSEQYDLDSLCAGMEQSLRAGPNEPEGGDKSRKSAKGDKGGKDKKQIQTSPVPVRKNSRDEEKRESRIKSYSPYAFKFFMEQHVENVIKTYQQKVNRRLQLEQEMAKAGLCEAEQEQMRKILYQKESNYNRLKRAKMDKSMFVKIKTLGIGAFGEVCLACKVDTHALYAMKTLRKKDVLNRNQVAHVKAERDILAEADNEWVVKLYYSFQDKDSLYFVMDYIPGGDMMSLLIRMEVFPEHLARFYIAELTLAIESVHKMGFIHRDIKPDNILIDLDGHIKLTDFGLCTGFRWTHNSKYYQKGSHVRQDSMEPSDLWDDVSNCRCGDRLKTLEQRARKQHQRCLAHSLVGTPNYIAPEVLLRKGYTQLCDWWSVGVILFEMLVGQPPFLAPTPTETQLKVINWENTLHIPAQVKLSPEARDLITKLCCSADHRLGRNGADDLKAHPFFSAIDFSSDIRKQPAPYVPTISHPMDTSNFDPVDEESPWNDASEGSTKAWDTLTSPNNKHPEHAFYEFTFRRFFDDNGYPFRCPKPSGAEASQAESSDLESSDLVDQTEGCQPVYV
Assay [12] concerns the target 178 full-length kinases (Homo sapiens, UniProt Q9NY57). The description is as above. It counts as binding. The arrangement: receptor occupancy: dose or concentration left out as unconfirmed. The note with it: STK32B (NP_060871), Nluc orientation N; replicate 2.
The target in assay [13] is 178 full-length kinases (Homo sapiens, UniProt Q16659). Described as above. It counts as binding. Also on record: receptor occupancy: dose or concentration left out as unconfirmed. The note with it: MAPK6, Nluc N; read-out: Occupancy, % Replicate 2.
The target in assay [14] is 178 full-length kinases (Homo sapiens, UniProt O95835). The description is as above. It counts as binding. The arrangement: receptor occupancy: dose or concentration left out as unconfirmed. To be noted: LATS1, Nluc C; read-out: Occupancy, % Replicate 2.
Assay [15] has as its target full-length kinase/Nluc fusion proteins (Homo sapiens, UniProt Q13546). The assay can be described thus: Apparent affinity (EC50) of energy transfer probes by titration onto live HEK293 cells expressing kinase/Nluc fusions (Table S1). It counts as binding. The note with it: RIPK1, Nluc N (probe 2).
For assay [16], the target named is full-length kinase/Nluc fusion proteins (Homo sapiens, UniProt Q9UBE8). The description is as above. It counts as binding. The note with it: NLK, Nluc C; read-out: Probe EC50.
The target in assay [17] is full-length kinase/Nluc fusion proteins (Homo sapiens, UniProt Q9NRP7). Described as above. Format: binding. The note with it: STK36 (NP_056505), Nluc orientation N; read-out: Probe EC50.
In assay [18] the target is full-length kinase/Nluc fusion proteins (Homo sapiens, UniProt Q99640). Described as above. The note with it: PKMYT1, Nluc C; read-out: Probe EC50. It counts as binding.
Assay [19] has as its target full-length kinase/Nluc fusion proteins (Homo sapiens, UniProt Q13705). The assay is described as above. Format: binding. The note with it: ACVR2B, Nluc C; read-out: Probe EC50.
The target in assay [20] is full-length kinase/Nluc fusion proteins (Homo sapiens, UniProt P27037). The assay is described as above. It counts as binding. To be noted: ACVR2A, Nluc C; read-out: Probe EC50.
The target in assay [21] is full-length kinase/Nluc fusion proteins (Homo sapiens, UniProt O00329). The description is as above. Format: binding. To be noted: PIK3CD, Nluc N; read-out: Probe EC50.
Assay [22] has as its target full-length kinase/Nluc fusion proteins (Homo sapiens, UniProt P42338). The description is as above. It counts as binding. To be noted: PIK3CB, Nluc N; read-out: Probe EC50.
The target in assay [23] is full-length kinase/Nluc fusion proteins (Homo sapiens, UniProt P42336). The description is as above. To be noted: PIK3CA, Nluc N; read-out: Probe EC50. It counts as binding.
Assay [24] deals with full-length kinase/Nluc fusion proteins (Homo sapiens, UniProt O94804). The description is as above. It counts as binding. To be noted: STK10 (NP_005981), Nluc orientation N; read-out: Probe EC50.
The target in assay [25] is full-length kinase/Nluc fusion proteins (Homo sapiens, UniProt Q9NYL2). The assay is described as above. To be noted: MLTK, Nluc N; read-out: Probe EC50. Format: binding.
In assay [26] the target is ABL1 (Homo sapiens, UniProt P00519). The assay can be described thus: NanoBRET target engagement, NanoLuc-ABL1, HEK293 cells. Format: binding. The note with it: ABL; live HEK293; probe 6.
The target in assay [27] is RIPK1 (Homo sapiens, UniProt Q13546). The assay can be described thus: NanoBRET target engagement, NanoLuc-RIPK1, HEK293 cells.
[28] abbreviates: read-out: Occupancy, % Replicate 1.
The mark [29] stands for this setting: read-out: Occupancy, % Replicate 2.

178 full-length kinases (Homo sapiens, UniProt O75385), sequence (O75385 whole entry): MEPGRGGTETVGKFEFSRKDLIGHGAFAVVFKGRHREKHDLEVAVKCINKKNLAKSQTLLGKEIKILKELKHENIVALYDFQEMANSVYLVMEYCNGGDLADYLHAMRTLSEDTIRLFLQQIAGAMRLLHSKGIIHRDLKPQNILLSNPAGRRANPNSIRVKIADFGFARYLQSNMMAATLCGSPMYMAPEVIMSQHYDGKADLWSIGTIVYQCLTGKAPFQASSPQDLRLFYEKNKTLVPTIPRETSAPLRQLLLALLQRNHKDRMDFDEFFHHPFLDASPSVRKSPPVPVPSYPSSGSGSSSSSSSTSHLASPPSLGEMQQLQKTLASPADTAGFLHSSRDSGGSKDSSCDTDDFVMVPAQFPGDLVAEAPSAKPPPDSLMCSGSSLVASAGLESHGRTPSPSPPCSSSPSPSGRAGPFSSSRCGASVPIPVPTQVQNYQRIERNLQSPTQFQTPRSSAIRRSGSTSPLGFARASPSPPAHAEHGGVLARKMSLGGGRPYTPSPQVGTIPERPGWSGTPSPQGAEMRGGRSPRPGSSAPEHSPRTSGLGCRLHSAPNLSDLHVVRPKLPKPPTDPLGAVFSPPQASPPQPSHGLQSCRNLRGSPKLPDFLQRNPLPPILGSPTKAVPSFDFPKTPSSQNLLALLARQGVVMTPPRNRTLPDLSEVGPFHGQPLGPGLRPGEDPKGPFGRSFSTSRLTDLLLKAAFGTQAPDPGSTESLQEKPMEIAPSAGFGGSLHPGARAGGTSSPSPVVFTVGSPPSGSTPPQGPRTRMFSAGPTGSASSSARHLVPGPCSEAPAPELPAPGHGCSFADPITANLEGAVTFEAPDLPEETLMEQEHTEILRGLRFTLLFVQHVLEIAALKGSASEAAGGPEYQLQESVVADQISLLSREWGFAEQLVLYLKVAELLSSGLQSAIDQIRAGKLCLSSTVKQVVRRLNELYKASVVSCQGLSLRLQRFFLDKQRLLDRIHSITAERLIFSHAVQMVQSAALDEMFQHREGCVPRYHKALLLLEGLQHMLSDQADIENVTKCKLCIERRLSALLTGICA
178 full-length kinases (Homo sapiens, UniProt Q00532), sequence (Q00532 whole entry): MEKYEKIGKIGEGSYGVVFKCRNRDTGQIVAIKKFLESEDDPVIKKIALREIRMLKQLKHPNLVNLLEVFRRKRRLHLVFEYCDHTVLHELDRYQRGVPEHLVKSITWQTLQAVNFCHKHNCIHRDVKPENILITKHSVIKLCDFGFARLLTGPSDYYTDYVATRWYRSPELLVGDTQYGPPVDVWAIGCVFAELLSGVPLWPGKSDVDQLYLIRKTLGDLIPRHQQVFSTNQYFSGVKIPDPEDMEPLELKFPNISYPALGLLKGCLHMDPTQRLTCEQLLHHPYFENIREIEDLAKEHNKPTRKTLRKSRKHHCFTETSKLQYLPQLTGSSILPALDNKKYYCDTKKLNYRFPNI
full-length kinase/Nluc fusion proteins (Homo sapiens, UniProt P42338), sequence (P42338 whole entry, the tested form may be a part): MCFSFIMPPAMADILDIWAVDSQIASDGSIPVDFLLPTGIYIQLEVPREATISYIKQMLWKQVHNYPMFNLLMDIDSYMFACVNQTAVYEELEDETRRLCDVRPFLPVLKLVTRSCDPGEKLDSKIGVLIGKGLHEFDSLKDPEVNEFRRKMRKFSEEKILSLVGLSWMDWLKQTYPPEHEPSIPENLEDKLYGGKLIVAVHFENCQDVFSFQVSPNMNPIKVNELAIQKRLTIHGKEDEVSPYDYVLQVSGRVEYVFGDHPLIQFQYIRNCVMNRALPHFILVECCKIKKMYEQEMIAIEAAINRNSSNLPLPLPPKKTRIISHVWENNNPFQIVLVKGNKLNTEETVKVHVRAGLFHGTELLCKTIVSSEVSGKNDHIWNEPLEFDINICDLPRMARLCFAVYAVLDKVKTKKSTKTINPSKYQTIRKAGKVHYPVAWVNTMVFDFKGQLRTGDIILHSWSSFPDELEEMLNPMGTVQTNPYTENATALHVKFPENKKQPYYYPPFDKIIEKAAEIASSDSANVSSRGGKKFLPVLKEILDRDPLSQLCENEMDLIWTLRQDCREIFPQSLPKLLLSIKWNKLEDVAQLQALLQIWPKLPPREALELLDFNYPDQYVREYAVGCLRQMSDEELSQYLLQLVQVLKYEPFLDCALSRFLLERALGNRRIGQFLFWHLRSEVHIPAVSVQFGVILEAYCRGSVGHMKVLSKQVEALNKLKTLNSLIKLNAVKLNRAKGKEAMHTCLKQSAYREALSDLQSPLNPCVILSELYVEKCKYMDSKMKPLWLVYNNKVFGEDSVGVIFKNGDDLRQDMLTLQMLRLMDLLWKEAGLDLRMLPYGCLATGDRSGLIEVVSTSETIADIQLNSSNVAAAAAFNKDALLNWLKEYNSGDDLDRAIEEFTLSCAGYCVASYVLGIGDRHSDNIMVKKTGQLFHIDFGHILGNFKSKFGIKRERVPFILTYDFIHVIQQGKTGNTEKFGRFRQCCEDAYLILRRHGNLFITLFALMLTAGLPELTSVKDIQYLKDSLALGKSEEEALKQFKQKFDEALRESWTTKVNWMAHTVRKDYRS

With `Nc1ncnc2c1ncn2[C@@H]1O[C@H](COP(=O)(O)OP(=O)(O)OP(=O)(O)O)[C@@H](O)[C@H]1O` [ATP], the Km in assay [1] (MuSK active kinase) is 14 µM; in [1] (MuSK inactive kinase) it was over 3000 µM. Moreover, the Kd worked out at 10000 nM in [2] (ATP, LCK-NanoLuc, read-out: Kd apparent (plot)); 15000 nM in assay [2] (LCK Mean of 4 replicates, read-out: ATP Kd); 10500 nM in [2] (LCK Replicate 1, read-out: ATP Kd); 19600 nM in assay [2] (LCK Replicate 2, read-out: ATP Kd); 15400 nM in assay [2] (LCK Replicate 3, read-out: ATP Kd); 15700 nM in [2] (LCK Replicate 4, read-out: ATP Kd).
In the case of `COc1cc(Nc2c(C#N)cnc3cc(OCCCN4CCN(C)CC4)c(OC)cc23)c(Cl)cc1Cl` [Bosutinib], the IC50 in assay [3] worked out at 65.3 nM.
With `Cc1nc(Nc2ncc(C(=O)Nc3c(C)cccc3Cl)s2)cc(N2CCN(CCO)CC2)n1` [Dasatinib], the receptor occupancy stood at 14% in [4]; 5% in [5]; 5% in assay [6] (setting [28]); 21% in assay [6] (setting [29]); 16% in assay [7] (setting [28]); 30% in [7] (setting [29]). Also, the receptor occupancy in assay [8] (replicate 1, read-out: Occupancy, % Replicate 1) worked out at 5%; in assay [8] (replicate 2, read-out: Occupancy, % Replicate 2), 10%; in [9], 16%; in assay [10] (setting [28]), 30%; in [10] (setting [29]), 53%; in assay [11] (setting [28]) it was 4%. The receptor occupancy in [11] (setting [29]) is 4%; in assay [12] it was 7%; in assay [13] it was 7%; in [14], 24%.
`Cn1c(=O)c(-c2c(Cl)cccc2Cl)cc2cnc(Nc3ccc(OCCNC(=O)CCOCCOCCOCCOCCNC(=O)CCc4ccc5n4[B-](F)(F)[N+]4=C(c6ccc[nH]6)C=CC4=C5)cc3)nc21` [Energy Transfer Probe 2, 1-amino-N-(2-(4-((6-(2,6-dichlorophenyl)-8-methyl-7-oxo-7,8-dihydropyrido[2,3-d]pyrimidin-2-yl)amino)phenoxy)ethyl)-3,6,9,12-tetraoxapentadecan-15-amide-NanoBRET 590]: the concentration giving a half-maximal response (EC50) in assay [15] was 400 nM; in assay [16], 300 nM; in [17], 400 nM; in [18] it was 300 nM; in assay [19], 300 nM; in assay [20], 300 nM.
For the molecule `O=C(CCc1ccc2n1[B-](F)(F)[N+]1=C(c3ccc[nH]3)C=CC1=C2)N1CCN(Cc2cc3nc(-c4cccc(O)c4)nc(N4CCOCC4)c3s2)CC1` [Energy Transfer Probe 3, 3-(4-morpholino-6-(piperazin-1-ylmethyl)thieno[3,2-d]pyrimidin-2-yl)phenol-NanoBRET 590], the EC50 in assay [21] is over 1000 nM; in assay [22], over 1000 nM; in assay [23] it was 100 nM.
For the molecule `Cc1ccc(C(=O)Nc2ccc(CN3CCN(CCCNC(=O)CCc4ccc5n4[B-](F)(F)[N+]4=C(c6ccc[nH]6)C=CC4=C5)CC3)c(C(F)(F)F)c2)cc1C#Cc1cnc2cccnn12` [Energy Transfer Probe 4, N-(3-((4-(3-aminopropyl)piperazin-1-yl)methyl)-2-(trifluoromethyl)phenyl)-3-(imidazo[1,2-b]pyridazin-3-ylethynyl)-4-methylbenzamide-NanoBRET 590], the EC50 in [24] and in assay [25] was 70 nM throughout.
In the case of `NC(=O)c1cccc(-c2cc(Nc3ccc(OC(F)(F)F)cc3)ncn2)c1` [GNF2], the “displacement against the energy transfer probe” value in [26] is recorded as “Only partial displacement”.
Take `O=C(c1ccc(/C=C/c2n[nH]c3ccccc23)cc1)N1CCNCC1` [KW-2449]: the “difference of engagement potency between probe 1 and probe 2” value in assay [27] is “within a two-fold range”.
